Assay results from US20240190838A1, “LZK-TARGETING DEGRADERS AND METHODS OF USE” (The U.S.A., as represented by the Secretary, Department of …, priority 2020, published 2024).
Converted amounts (≈) assume the structure as drawn. Like-named read-outs stand apart in the source and are kept apart here. One block for each molecule: values may come before it. Where a SMILES comes first, the peptide text is derived from it. The star is where a group is joined. Cbz = O=C(OCc1ccccc1)*

How the values were obtained:
[1] = test system: c-MYC; assay: c-MYC levels in CAL33 and BICR56 cells depleted of LZK; assay type: cell-based; settings: 10 μM for six hours; LZK depleted 48 hours
Protocol: CAL33 and BICR56 inducible knockdown cells were generated by SIRION Biotech. MSK921 was generated in-house using lentiviral particles provided by SIRION (generated by transfection of 293TN cells with expression vectors and lentiviral packaging plasmids). Transduction occurred at MOI 5 with 8 μg/mL polybrene. After 24 hours, medium was replaced with fresh medium containing puromycin (Invitrogen) to select for cells that had been effectively transduced. shRNA sequences were […] (sh1; SEQ ID NO: 19) and […] (sh2; SEQ ID NO: 20). The lentiviral expression plasmid was pCLVi(3G)-MCS-Puro, which expresses a doxycycline-responsive transactivator and the shRNA from the same vector. Expression of the transactivator is constitutive, while shRNA expression depends on a doxycycline-inducible promoter. […]
Generally, cells were plated in six-well or 35-mm plates for 24 hours, after which doxycycline was added or treatment with specific inhibitor was administered using 50 FBS media for 48 hours. […] Protein concentrations were determined from the cell lysate by using 660 nm Protein Assay Reagent (Pierce). […] The membranes were incubated with the specific antibodies overnight in […] at 4° C. followed by a 1 hour incubation with the appropriate horseradish peroxidase-conjugated secondary antibodies and signal was detected by chemiluminescence (Thermo Fisher).

[2] = target: T1, LZK (Homo sapiens, UniProt O43283); assay: LZK degradation (doxycycline-induced LZK expression, immunoblot) in CAL33 cells; assay type: cell-based; parameters: V5 (named only in the vector); expressed in transfected cells; host or cells: CAL33 HNSCC cells, lentiviral T-REx system, induced with doxycycline; settings: for LZK degradation / dox-induced LZK expression: CAL33, doxycycline 48 hours, LZK PROTAC 24 hours, 0-10 μM; for dox-induced LZK expression at high concentrations: 24 hours
T1 sequence (O43283 1-966): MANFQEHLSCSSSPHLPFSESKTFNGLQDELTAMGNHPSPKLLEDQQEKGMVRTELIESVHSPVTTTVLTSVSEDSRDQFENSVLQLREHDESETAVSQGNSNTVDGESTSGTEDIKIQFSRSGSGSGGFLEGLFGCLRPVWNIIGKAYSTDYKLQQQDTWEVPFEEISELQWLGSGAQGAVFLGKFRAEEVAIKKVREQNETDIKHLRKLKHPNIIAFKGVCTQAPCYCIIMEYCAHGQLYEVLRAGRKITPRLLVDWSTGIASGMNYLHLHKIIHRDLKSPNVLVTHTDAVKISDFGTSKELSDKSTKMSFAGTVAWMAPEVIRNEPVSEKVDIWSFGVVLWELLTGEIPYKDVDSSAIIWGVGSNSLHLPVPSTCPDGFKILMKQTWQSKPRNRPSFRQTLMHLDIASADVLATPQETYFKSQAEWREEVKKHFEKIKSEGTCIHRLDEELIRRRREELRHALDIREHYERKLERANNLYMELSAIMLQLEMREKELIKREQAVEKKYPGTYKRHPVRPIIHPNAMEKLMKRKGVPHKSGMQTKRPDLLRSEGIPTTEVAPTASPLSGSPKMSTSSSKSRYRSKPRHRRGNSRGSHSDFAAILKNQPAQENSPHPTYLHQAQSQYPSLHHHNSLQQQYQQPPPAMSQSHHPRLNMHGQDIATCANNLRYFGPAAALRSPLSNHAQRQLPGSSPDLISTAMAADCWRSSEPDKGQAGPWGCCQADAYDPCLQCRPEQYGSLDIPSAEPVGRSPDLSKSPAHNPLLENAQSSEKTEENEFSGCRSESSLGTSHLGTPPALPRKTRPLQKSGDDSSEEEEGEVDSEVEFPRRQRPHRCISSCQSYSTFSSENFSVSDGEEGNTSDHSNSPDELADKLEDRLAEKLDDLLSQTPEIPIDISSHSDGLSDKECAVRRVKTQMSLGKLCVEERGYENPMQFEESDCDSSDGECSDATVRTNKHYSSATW
Excerpt: (§1) The ViraPower HiPerform T-REx Gateway Expression System (Invitrogen) was used to generate cells with tetracycline-inducible expression of LZK. In brief, wild-type (WT) or drug-resistant mutant (Q240S) LZK (cloned into pLenti6.3/TO/V5-DEST vector) and pLenti3.3/TR (for tetracycline repressor expression) were transfected into 293FT cells using Lipofectamine 2000 to generate lentiviral stock. Cell lines were generated by antibiotic selection (blasticidin [Gibco] and geneticin [Gibco]). Doxycycline (Sigma-Aldrich) was used at 1 μg/mL to induce LZK expression.
(§2) Generally, cells were plated in six-well or 35-mm plates for 24 hours, after which doxycycline was added or treatment with specific inhibitor was administered using […] for 48 hours. After appropriate treatment time, cells were washed with ice-cold phosphate-buffered saline without Ca and Mg (Quality Biological) and then lysed on ice with RIPA buffer (50 mM NaCl, 1.0% o IGEPAL® CA-630, 0.5% o sodium deoxycholate, 0.10% SDS, 50 mM Tris, pH 8.0) (Sigma-Aldrich) supplemented with protease inhibitor tablet (Sigma-Aldrich) and phosphatase inhibitor cocktails 2 and 3 (Sigma-Aldrich) followed by centrifugation at 15,000 rpm for 10 minutes at 4° C. Protein concentrations were determined from the cell lysate by using 660 nm Protein Assay Reagent (Pierce). Cell extracts were denatured, subjected to SDS-PAGE, transferred to PVDF membranes (Bio-Rad) and blocked for 2 hours using 5 bovine serum albumin (BSA) in phosphate-buffered saline and 0.10 Tween® 20 (PBS-T). The membranes were incubated with the specific antibodies overnight in […] at 4° C. followed by a 1 hour incubation with the appropriate horseradish peroxidase-conjugated secondary antibodies and signal was detected by chemiluminescence (Thermo Fisher).

[3] = Parallel artificial membrane permeability assay (PAMPA); assay type: in vitro ADME
[4] = target: T1, LZK; assay: LZK inhibition in cells monitored by downstream JNK phosphorylation (dox-induced LZK); assay type: cell-based; parameters: V5 (named only in the vector); expressed in transfected cells; host or cells: CAL33 HNSCC cells, lentiviral T-REx system, induced with doxycycline
Excerpt: as §1, §2
A PathScan® Phospho-SAPK/JNK (Thr183/Tyr185) Sandwich ELISA Assay (Cell Signaling Technology) was used for ELISA assays following the manufacturer's protocol. In general, 500,000 cells were plated and treated with doxycycline the following day where appropriate and incubated at 37° C. for 48 hours. Cells were treated with the drug compound or control in 5% FBS media for 1 hour. After appropriate treatment time, cells were lysed on ice with 1x Cell Lysis Buffer (Cell Signaling Technology) supplemented with phosphatase and protease inhibitors (Sigma). Each diluted cell lysate was added to Phospho-SAPK/JNK (Thr183/Tyr185)Rabbit mAb Coated microwells in triplicate and incubated overnight at 4° C. Samples were treated with the following antibodies and incubated at 37° C. for 1 hour and 30 minutes, respectively: Detection Antibody and HRP-Linked secondary antibody. Samples were washed between treatments using 1× Wash Buffer according to the manufacturer's protocol. TMB substrate was added to each well and incubated at 37° C. for 10 minutes. Following this, STOPsolution was added to each well and absorbance was measured at 450 nm using iMark™ Microplate Absorbance Reader (Bio-Rad). Graphs display relative phospho-JNK levels.

[5] = Rat liver microsomal (RLM) stability assay; assay type: in vitro ADME; settings: rat liver microsomes; read-out: RLM Stability (t1/2)
[6] = Kinetic solubility assay; assay type: physicochemical; settings: kinetic from dmso stock

SMILES: CC(C)C[C@@H](C=O)NC(=O)[C@H](CC(C)C)NC(=O)[C@H](CC(C)C)NC(=O)OCc1ccccc1 [MG132] (Cbz-Leu-Leu-Leu-aldehyde)
- c-MYC levels in LZK-depleted cells [1]: rescued decreases in the c-MYC levels

- LZK degradation / dox-induced LZK expression [2]: did not degrade LZK
- Ratio of mean permeability (×10^4 cm/s) related to low permeability control (atenolol) ([3]; Table 7): 0.05
- Papp ([3]; Table 7, read-out: Mean permeability): 0.0001 ×10⁻⁶ cm/s
SMILES: C[C@@H](C(=O)N[C@H](C(=O)N1C[C@@H](NC(=O)CCCCCCC(=O)N2CCC(c3cc(Nc4cc(C#N)ccn4)nc(N4CCC(F)(F)C4)c3)CC2)C[C@H]1C(=O)N[C@@H]1CCCc2ccccc21)C1CCCCC1)N(C)C(=O)OC(C)(C)C [Compound 30]

- LZK degradation / dox-induced LZK expression [2]: ineffective at degrading LZK
SMILES: Cc1ncsc1-c1ccc([C@H](C)NC(=O)[C@@H]2C[C@@H](O)CN2C(=O)[C@@H](NC(=O)CCCCCCC(=O)N2CCC(c3cc(Nc4cc(C(F)(F)F)ccn4)nc(N4CCC(F)(F)C4)c3)CC2)C(C)(C)C)cc1 [Compound 4]
- dox-induced LZK expression at high concentrations [2]: slightly decreased dox-induced LZK expression

- LZK degradation / dox-induced LZK expression [2]: ineffective at degrading LZK
- JNK signaling inhibition by targeted degraders ([4]; CAL33 cells induced with doxycycline, 0-10 μM): inhibited LZK
SMILES: O=C(CCCCCCC(=O)N1CCC(c2cc(Nc3cc(C(F)(F)F)ccn3)nc(N3CCC(F)(F)C3)c2)CC1)NCCCCNC(=O)CNc1cccc2c1C(=O)N(C1CCC(=O)NC1=O)C2=O (stereo not shown) [Compound 5]
- dox-induced LZK expression at high concentrations [2]: slightly decreased dox-induced LZK expression

- LZK inhibition in cells, measured by inhibition of downstream JNK pathway activation ([4]; dox-inducible LZK in CAL33 cells): poor LZK inhibitor in cells
SMILES: FC1(F)CCN(c2cc(C3CCNCC3)cc(Nc3cc(C(F)(F)F)ccn3)n2)C1 [LZK inhibitor 1]

- half-life [5]: > 30 min
- solubility [6]: 26 µg/mL (≈ 27.1 µM)
- Papp ([3]; pH 7.4): < 1 ×10⁻⁶ cm/s
SMILES: Cc1ncsc1-c1ccc([C@H](C)NC(=O)[C@@H]2C[C@@H](O)CN2C(=O)[C@@H](NC(=O)c2cncc(C(=O)N3CCC(c4cc(Nc5cc(C#N)ccn5)nc(N5CCC(F)(F)C5)c4)CC3)c2)C(C)(C)C)cc1 [Compound 7]
